From PubChem BioAssay (NCI)
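These data come from cells grown in 96-well plates and exposed to compound for 48 hours at five concentrations. The concentration for full growth arrest is given as TGI.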 Where a SMILES comes first, the peptide text is derived from it. [ ]: non-standard residue; d: D form. The star is where a group is joined. ξ: configuration not given here. ξD = NC(CC(=O)O)C(=O)O; Boc = CC(C)(C)OC(=O)*; Aib = CC(C)(N)C(=O)O; OBn = c1ccc(CO*)cc1

Tests used:
Assay in all cases: DTP human tumour cell line panel, 48 h
[1] = system: TK-10 renal
[2] = system: DU-145 prostate
[3] = system: HOP-92 NSCLC
[4] = system: HT29 colon
[5] = system: COLO 205 colon
[6] = system: MDA-MB-435
[7] = system: ACHN renal

| SMILES | TGI [1] [µM] | TGI [2] [µM] | TGI [3] [µM] | TGI [4] [µM] | TGI [5] [µM] | TGI [6] [µM] | TGI [7] [µM] |
| --- | --- | --- | --- | --- | --- | --- | --- |
| O=c1[nH]c2nc3ccccc3c(=O)n2/c1=C/c1ccccc1 | > 100 | > 100 | > 100 | 39.1 | > 100 | 59 | > 100 |
| O=S(Cc1ccccc1)c1ccccc1Cn1cccc1 (stereo not drawn) | > 100 | > 100 | > 100 | > 100 | > 100 | > 100 | > 100 |
| Cc1nc(C(N)=S)sc1C(=O)CC(=O)C(=O)Nc1ccc(Br)cc1 | > 100 | – | > 100 | > 100 | – | > 100 | > 100 |
| Cc1cc(C)n(-c2nc(-n3nc(C)cc3C)nc(-n3nc(C)cc3C)n2)n1 | 86.5 | > 100 | > 100 | > 100 | > 100 | > 100 | > 100 |
| Cn1c(-c2ccccc2)cc(-c2ccc3c(c2)OCO3)c1-c1ccsc1 | > 100 | > 100 | > 100 | > 100 | > 100 | > 100 | > 100 |
| Cc1cccc2c(N)c3cccc(C(=O)NCC[N+](C)(C)Cc4ccccc4[N+](=O)[O-])c3nc12 | > 20 | > 100 | 49.5 | 19.8 | > 39.7 | > 46.9 | 13.9 |
| CSc1nc(-c2ccccc2)[nH]c(=O)n1 | > 100 | > 100 | > 100 | > 100 | > 100 | > 100 | > 100 |
| O=S(=O)(CC(Cl)c1ccccc1)c1nc2ccccc2s1 (stereo not drawn) | 34.2 | 30.2 | 9.38 | 21.2 | 22.2 | 20.5 | 29.1 |
| C/C(=N\O)c1ccc(OCc2cc(C(F)(F)F)cc(C(F)(F)F)c2)cc1 | > 100 | > 100 | > 100 | > 100 | > 100 | > 100 | > 100 |
| Cc1cccc(N=Nc2c(C)nn(C(=O)CC(=O)Nc3ccc(Cl)cc3)c2C)c1 | > 100 | > 100 | 79.6 | > 100 | > 100 | > 100 | > 100 |
| Brc1ccc(-c2[nH]c3ccccc3c2/C=N\Nc2ccc(-c3nc4ccccc4[nH]3)cc2)cc1 | > 100 | > 31.8 | – | – | 0.0834 | – | 17.3 |
| NC1CCN(c2nc3ccccc3c3c2CCCC3)CC1 | 23.2 | 24.3 | 17.2 | 5.27 | 3.22 | 7.61 | 22.4 |
| C/C(O)=C(/C=N/C(=S)Nc1ccccc1)C(=O)Nc1ccccc1C | > 100 | > 100 | > 100 | > 100 | > 100 | > 100 | > 100 |
| CCOC(=O)C1CCCc2sc(N)c(C#N)c21 (stereo not drawn) | > 100 | – | > 100 | > 100 | > 100 | – | > 100 |
| CC1(C)CN(CC(=O)O)CC(Cc2ccc(OCC(=O)O)cc2)N(CC(=O)O)CC(C)(C)SS1 (stereo not drawn) | > 100 | > 100 | > 100 | > 100 | > 100 | > 100 | > 100 |
| Cc1cc(C)c(/C=C2\C(=O)Nc3ccccc32)[nH]1 | > 100 | > 100 | > 100 | > 100 | > 100 | > 100 | > 100 |
| Nc1ccc(Oc2ccc(C34CC5CC(C3)CC(c3ccc(Oc6ccc(N)cc6C(F)(F)F)cc3)(C5)C4)cc2)c(C(F)(F)F)c1 | 31.1 | > 100 | – | 35.6 | 37.1 | 84.2 | > 100 |
| CC(=O)C1C(=O)C(=O)N(c2ccc([N+](=O)[O-])cc2[N+](=O)[O-])C1=O (stereo not drawn) | > 100 | > 100 | > 100 | > 100 | > 100 | > 100 | > 100 |
| O=C1NC(=O)C(CCC(=O)c2cccc3ccccc23)C(=O)N1 | – | > 100 | > 100 | > 100 | > 100 | > 100 | > 100 |

| SMILES | TGI [1] [µM] | TGI [2] [µM] | TGI [3] [µM] | TGI [4] [µM] | TGI [5] [µM] | TGI [6] [µM] | TGI [7] [µM] |
| --- | --- | --- | --- | --- | --- | --- | --- |
| COc1cc(C2c3cc4c(cc3OC(NNC(N)=S)C2C)OCO4)cc(OC)c1OC (stereo not drawn) | > 100 | > 100 | 7.9 | 2.6 | 1.37 | – | > 100 |
| COc1ccc2c(=O)c3ccoc3[nH]c2c1 | > 100 | > 100 | > 100 | > 100 | > 100 | > 100 | > 100 |
| Cc1[nH]c2ncn3[nH]c(=S)nc3c2c1Cc1ccccc1 | > 100 | > 100 | > 100 | > 100 | > 100 | > 100 | > 100 |
| CC(=O)NC1=NC(=O)/C(=C/c2ccccc2Cl)N1C | > 100 | > 100 | > 100 | > 100 | > 100 | > 100 | > 100 |
| COCN1C(=O)[C@@H]2C[C@@H](O)CN2C(=O)c2ccccc21 | > 100 | > 100 | > 100 | > 100 | > 100 | > 100 | > 100 |
| CCOC(=O)c1cc(=O)c2cccc3c2n1CCS3 | > 100 | > 100 | > 100 | > 100 | > 100 | > 100 | > 100 |
| COC(=O)C1(Cc2ccccc2)Cc2ccccc2C1O (stereo not drawn) | > 100 | > 100 | – | > 100 | > 100 | > 100 | > 100 |
| NC(=O)N/N=C\CC(O)(C(F)(F)Cl)C(F)(F)Cl | > 10 | > 10 | > 10 | > 10 | > 10 | > 10 | > 10 |
| N#CC(O)CCOCc1ccccc1 (stereo not drawn) | > 100 | > 100 | > 100 | > 100 | > 100 | > 100 | > 100 |
| O=C(N/C(=C\c1ccccc1)c1nc2ccccc2c(=O)o1)c1ccccc1 | > 100 | > 100 | > 100 | > 100 | > 100 | > 100 | > 100 |
| CN(C)c1ccc(N=C2N=C(Nc3ccccc3)C(=Nc3ccccc3)S2)cc1 | > 100 | > 100 | > 100 | > 100 | > 100 | > 100 | > 100 |
| O=C1N[C@H]2C(=O)c3c(Br)sc(Br)c3[C@H]2O1 | 41 | 28.9 | 28.9 | 6.59 | 8.17 | 26.7 | 18.1 |
| COc1c(Sc2c(SCSc3cnc4ccccc4c3Sc3cnc4ccccc4c3OC)cnc3ccccc23)cnc2ccccc12 | > 100 | > 100 | 84 | > 100 | > 100 | > 100 | > 100 |
| CCN(CC)CCCNc1ccc([N+](=O)[O-])c2nc3ccccc3c(N)c12 | > 10 | > 10 | > 10 | 1.81 | – | 2.9 | – |
| CCS1=C2C(=O)CC(C)(C)CC2=Nc2ccccc21 (stereo not drawn) | > 100 | > 100 | > 100 | > 100 | > 100 | > 100 | > 100 |
| Cc1ccc(S(=O)(=O)C2=Cc3ccccc3C2(O)c2ccccc2)cc1 (stereo not drawn) | > 100 | > 100 | – | 36.1 | 62.6 | 69.9 | > 100 |
| Cc1ccc(S(=O)(=O)N(CCN)c2cc3c4c(c2)Oc2cccc5c2C4c2c(cccc2O3)O5)cc1 | > 100 | – | 70.8 | 28.6 | 57.9 | 60.3 | > 100 |
| COc1cccc([C@@H]2C/C(=N\NC(=O)C(=O)N[C@@H](C)c3ccccc3)c3ccccc3N2)c1 | > 100 | > 100 | > 100 | – | > 100 | 48.8 | > 100 |
| Fc1cc2nc3n(c2cc1F)C(c1c(F)cccc1F)SC3 (stereo not drawn) | > 100 | > 100 | > 100 | > 100 | > 100 | > 100 | > 100 |

| SMILES | TGI [1] [µM] | TGI [2] [µM] | TGI [3] [µM] | TGI [4] [µM] | TGI [5] [µM] | TGI [6] [µM] | TGI [7] [µM] |
| --- | --- | --- | --- | --- | --- | --- | --- |
| CC(C)(C)OC(=O)NC(CC(=O)OCc1ccccc1)C(=O)NC(C)(C)C(N)=O (stereo not drawn) (Boc-[ξD](OBn)-[Aib]-NH2) | > 100 | > 100 | > 100 | > 100 | > 100 | > 100 | > 100 |
| CCCC(=O)OCC1OC(n2cc(F)c(=O)[nH]c2=O)C(F)C1O (stereo not drawn) | > 100 | > 67.1 | > 100 | > 100 | > 100 | > 100 | > 100 |
| O=C(/C=C/c1ccc([N+](=O)[O-])cc1)N1CCN(CCOC(c2ccc(F)cc2)c2ccc(F)cc2)CC1 | > 100 | > 100 | 83.8 | > 100 | 27.3 | > 100 | > 100 |
| COC(=O)CN(CC(=O)NCCNC(=O)OC(C)(C)C)C1CCCCC1N(CC(=O)OC)CC(=O)OC (stereo not drawn) | > 100 | > 100 | – | > 100 | > 100 | > 100 | > 100 |
| Oc1ccc(Br)cc1C=Nc1c(NC2CCCCC2)oc2ccc(Br)cc12 | > 100 | > 100 | – | 78.4 | – | > 100 | > 100 |
| CC(NNC(=O)c1ccncc1)c1ccccc1 (stereo not drawn) | > 100 | > 100 | > 100 | > 100 | > 100 | > 100 | > 100 |
| FC(F)(F)c1ccc2c(-c3cc[nH]c3)ccnc2c1 | 70.1 | > 100 | > 100 | 39.2 | 43.8 | > 100 | > 100 |
| Cc1n[nH]c(=O)n1C1CC1 | – | > 100 | > 100 | > 100 | > 100 | > 100 | > 100 |
| O=C1c2ccccc2CC12Cc1cc3c(cc1C2)CCC3 | > 100 | > 100 | > 100 | 62.1 | > 100 | > 100 | > 100 |
| COc1cc(/C=N/NC(=O)c2c(Cl)c(Cl)c(Cl)c(Cl)c2-c2nc3ccc(C(=O)c4ccccc4)cc3[nH]2)ccc1O | > 100 | > 100 | > 100 | > 100 | 58.1 | > 100 | > 100 |
| Cc1c(-c2ccccc2)c(C#N)c2nnn(-c3ccc(Cl)cc3)c(=O)n12 | > 100 | > 100 | > 100 | > 100 | 42.3 | > 100 | > 100 |
| CC(C(=O)NCNC(=O)c1ccccc1)C(=O)Nc1ccccc1 (stereo not drawn) | > 100 | > 100 | > 100 | > 100 | > 100 | > 100 | > 100 |
| S=C(NCCc1ccccn1)N/N=C(\c1ccccc1)c1ccccn1 | > 100 | > 48.6 | > 55.7 | 21.7 | > 100 | > 100 | 17.9 |
| CCOC(=O)c1c(NC(=S)Nc2ccccc2)sc2c1CCN(C)C2 | > 100 | > 100 | – | > 100 | > 100 | – | > 100 |
| CC(=O)Nc1ccc(S(=O)(=O)c2nnc(NC(C)=O)s2)cc1 | > 100 | > 100 | > 100 | > 100 | 0.537 | > 100 | > 100 |
| Cn1c(=O)c2c(nc3n2CCCC(=O)N3CCCCl)n(C)c1=O | > 100 | > 100 | > 100 | > 100 | > 100 | > 100 | > 100 |
| NC(=O)c1ncn(C2C=CC(CP(=O)(O)O)C2)c1N (stereo not drawn) | > 100 | > 100 | > 100 | > 100 | > 100 | > 100 | > 100 |
| CC(C)CC(=O)CC(C)[C@]1(CCCOCc2ccccc2)C(=O)N2CCC3(C[C@@]24CCC[C@H]41)OCCO3 (stereo partly drawn) | > 10 | – | > 10 | – | > 10 | > 10 | – |
| COc1cc(/C=C2\CCC(C)C3=C2N=c2s/c(=C/c4ccc(Cl)cc4)c(=O)n2C3c2cc(OC)c(OC)c(OC)c2)cc(OC)c1OC (stereo not drawn) | > 100 | > 100 | > 100 | > 100 | – | > 100 | > 100 |
